Reference: patent US20220264878A1, “HERBICIDAL COMPOSITION CONTAINING R-TYPE PYRIDYLOXY CARBOXYLIC ACID DERIVATIVE AND USE THEREOF” (Qingdao Kingagroot Chemical Compound Co., Ltd., priority 2019, published 2022)
Like-named read-outs stand apart in the source and are kept apart here.

Columns and labels:
Type in all cases: in vivo
Amaranthus retroflexus = test: Post-emergence foliage spray, pot culture, fresh weight inhibition (Tables 151-206; 20 days)
Method in brief: (§1)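 Pre-germinated seeds (25° C soak 6 h, 28° C dark) grown in pots, thinned to 15 per pot; foliage-sprayed at 4~5-leaf (grasses) or 5~6-leaf (broadleaf) stage, 450 kg/ha spray volume, 0.3 MPa. Agents in acetone diluted with 0.1% Tween-80 water; solvent blank control. Above-ground fresh weight weighed, dead weeds scored zero.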

Capsella bursa-pastoris = test: as above; conditions: Capsella bursa-pastoris, 480 h, read-out: Control effect (%) of A applied alone in corresponding dose
Method in brief: as §1

Abutilon theophrasti = test: Post-emergence foliage spray, pot culture, fresh weight inhibition (Tables 1-48, 51-98, 101-148; 24 days)
Method in brief: (§2)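 Greenhouse pot-grown weeds (15 per pot, 3 pots, 4 replicates) at the 5–6-leaf (grasses) or 6–7-leaf (broadleaf) stage were sprayed once on foliage at 450 kg/ha spray volume, 0.3 MPa. Acetone solutions were diluted in 0.1% Tween-80. Aboveground fresh weight versus blank control was recorded after 24 days.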

Ipomoea purpurea = test: as above; conditions: Table 98
Method in brief: as §2

Alopecurus japonicus [1] = test: as above
Method in brief: as §2

Ludwigia prostrate = test: as above
Method in brief: as §2

Sinapis arvensis = test: Post-emergence foliage spray, pot culture, fresh weight inhibition (Tables 151-206; 20 days)
Method in brief: (§3)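 Field-collected weeds grown in pots in a greenhouse (20-30° C., natural light, 57-72% RH), 15 per pot, 3 pots × 4 replicates. Single foliar spray at 4-5 leaves (grasses) or 5-6 leaves (broadleaf) with acetone/0.1% Tween-80 dilutions at 450 kg/ha, 0.3 MPa. Above-ground fresh weight inhibition versus solvent blank at 20 days.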

Digitaria sanguinalis = test: as above; conditions: Digitaria sanguinalis, 480 h, read-out: Control effect (%) of A applied alone in corresponding dose
Method in brief: as §3

Eleusine indica = test: as above
Method in brief: as §3

Alopecurus japonicus [2] = test: as above
Method in brief: as §3

[3] = A alone 75 g a.i./ha, 20 days after treatment
[4] = A alone 150 g a.i./ha, 20 days after treatment

With `C[C@@H](Oc1nc(F)c(Cl)c(N)c1Cl)C(=O)O` [Compound A1] the “Control effect (%) of A applied alone in corresponding dose” value (shortened to “Control effect (%) of A applied alone”) (Amaranthus retroflexus; A 75 g a.i./ha, 20 days) was 35.4%, the “Control effect (%) of A applied alone” value (Amaranthus retroflexus; A 150 g a.i./ha, 20 days) was 71.7% and the pest or weed control at 75 g/ha (Capsella bursa-pastoris; A 75 g a.i./ha, 20 days) was 56.5%. For the same molecule, the pest or weed control at 150 g/ha (Capsella bursa-pastoris; A 150 g a.i./ha, 20 days) was 82.4%, the “Control effect (%) of A applied alone” value (Abutilon theophrasti; A1 7.5 g a.i./ha) was 44.3% and the “Control effect (%) of A applied alone” value (Abutilon theophrasti; A1 15 g a.i./ha) was 79.6%. For the same molecule, the “Control effect (%) of A applied alone” value (Ipomoea purpurea; 75 g a.i./ha) was 37.7%, the “Control effect (%) of A applied alone” value (Ipomoea purpurea; 150 g a.i./ha (r12), r13 prints 75 + 7.5, A:B 20:1) was 59.5% and the “Control effect (%) of A applied alone” value (Alopecurus japonicus [1]; A1 7.5 g a.i./ha) was 25.6%. For the same molecule, the “Control effect (%) of A applied alone” value (Alopecurus japonicus [1]; A1 15 g a.i./ha) was 48.1%, the “Control effect (%) of A applied alone” value (Alopecurus japonicus [1]; A1 75 g a.i./ha) was 25.6% and the “Control effect (%) of A applied alone” value (Alopecurus japonicus [1]; A1 150 g a.i./ha) was 48.1%. The “Control effect (%) of A applied alone” value (Ludwigia prostrate; A1 75 g a.i./ha) was 34.3%, the “Control effect (%) of A applied alone” value (Ludwigia prostrate; A1 150 g a.i./ha) was 72.4% and the “Control effect (%) of A applied alone” value (Sinapis arvensis; A 75 g a.i./ha, 20 days) was 50.4%. The “Control effect (%) of A applied alone” value (Sinapis arvensis; A 150 g a.i./ha, 20 days) was 79.9%, the pest or weed control at 75 g/ha (Digitaria sanguinalis; A 75 g a.i./ha, 20 days) was 25.9% and the pest or weed control at 150 g/ha (Digitaria sanguinalis; A 150 g a.i./ha, 20 days) was 69.1%. For the same molecule, the “Control effect (%) of A applied alone” value (Eleusine indica; A 75 g a.i./ha, 20 days) was 46.9%, the “Control effect (%) of A applied alone” value (Eleusine indica; A 150 g a.i./ha, 20 days) was 81.2% and the “Control effect (%) of A applied alone” value (Alopecurus japonicus [2]; A 75 g a.i./ha, 20 days) was 31.3%. The “Control effect (%) of A applied alone” value (Alopecurus japonicus [2]; A 150 g a.i./ha, 20 days) was 57.6%.

With `C[C@@H](Oc1nc(F)c(Cl)c(N)c1Cl)C(=O)OCC1CCCO1` (stereo partly shown) [Compound A2] the “Control effect (%) of A applied alone” value (Amaranthus retroflexus; [3]) was 25.7%, the “Control effect (%) of A applied alone” value (Amaranthus retroflexus; [4]) was 51.8% and the pest or weed control at 75 g/ha (Capsella bursa-pastoris; [3]) was 44.2%. For the same molecule, the pest or weed control at 150 g/ha (Capsella bursa-pastoris; [4]) was 65%, the “Control effect (%) of A applied alone” value (Sinapis arvensis; [3]) was 37.9% and the “Control effect (%) of A applied alone” value (Sinapis arvensis; [4]) was 60.4%. For the same molecule, the pest or weed control at 75 g/ha (Digitaria sanguinalis; [3]) was 19.4%, the pest or weed control at 150 g/ha (Digitaria sanguinalis; [4]) was 51.6% and the “Control effect (%) of A applied alone” value (Eleusine indica; [3]) was 35.7%. For the same molecule, the “Control effect (%) of A applied alone” value (Eleusine indica; [4]) was 63.3%, the “Control effect (%) of A applied alone” value (Alopecurus japonicus [2]; [3]) was 24.4% and the “Control effect (%) of A applied alone” value (Alopecurus japonicus [2]; [4]) was 44.5%.
